For 3 compounds, LC50 results are on record in ChEMBL document CHEMBL1147149, “Ecdysteroids from Serratula wolffii roots” (2007).

What is called LC50 is the concentration that kills 50% of the test population. Read a high LC50 as a less lethal substance.

The structures appear in SMILES notation.

The test system of the experiment is Acyrthosiphon pisum. The experiment can be described thus: Toxicity against larvae of orally dosed Acyrthosiphon pisum Harris. Type of experiment: functional.
Consider `C/C(=C\CCC(C)(C)O)[C@H]1CC[C@@]2(O)C3=CC(=O)[C@@H]4C[C@@H](O)[C@@H](O)C[C@]4(C)C3CC[C@]12C` (stereo partly drawn), for which the LC50 is reported as greater than 100 ppm.

On to `C/C(=C\CCC(C)(C)O)[C@H]1CC[C@@]2(O)C3=CC(=O)[C@@H]4C[C@@H](O)[C@@H](O)[C@@H](O)[C@]4(C)C3CC[C@]12C` (stereo partly drawn), for which the LC50 came out at 48.5 ppm.

Compound `CC(C)(O)CC[C@@H](O)[C@](C)(O)[C@H]1CC[C@@]2(O)C3=CC(=O)[C@@H]4C[C@@H](O)[C@@H](O)C[C@]4(C)[C@H]3CC[C@]12C` [20-HYDROXYECDYSONE] returned a 50% lethal concentration (LC50) of 1.07 ppm.
